Experimental data from patent US10093683B2, “Factor XIa inhibitors” (Merck Sharp & Dohme Corp., priority 2014, dated 2018).

Molecular target: human Factor XIa (Homo sapiens (Human), UniProt P03951)
Assay: Factor XIa Assay
Assay type: biochemical
Settings: purified human Factor XIa 40 pM, Z-Gly-Pro-Arg-AFC 100 μM, pH 7.4; read-out: FXIa Ki
Experimental: The effectiveness of a compound of the present invention as an inhibitor of Coagulation Factor XIa can be determined using a relevant purified serine protease, and an appropriate synthetic substrate. The rate of hydrolysis of the chromogenic or fluorogenic substrate by the relevant serine protease was measured both in the absence and presence of compounds of the present invention. Assays were conducted at room temperature or at 37° C. […] A decrease in the rate of fluorescence change in the presence of inhibitor is indicative of enzyme inhibition. Such methods are known to one skilled in the art. The results of this assay are expressed as the inhibitory constant, Ki.
Factor XIa determinations were made in 50 mM HEPES buffer at pH 7.4 containing 150 mM NaCl, 5 mM CaCl2, and 0.1% PEG 8000 (polyethylene glycol; JT Baker or Fisher Scientific). Determinations were made using purified human Factor XIa at a final concentration of 40 pM (Sekisui Diagnostics) and he synthetic substrate, Z-Gly-Pro-Arg-AFC, TFA salt (Sigma #C0980) at a concentration of 100 μM.
Times required to achieve equilibration between enzyme and inhibitor were determined in control experiments. Initial velocities of product formation in the absence (Vo) or presence of inhibitor (Vi) were measured. Assuming competitive inhibition, and that unity is negligible compared Km/[S], [I]/e, and [I]/e (where [S], [I], and e respectively represent the total concentrations, of substrate, inhibitor and enzyme), the equilibrium constant (Ki) for dissociation of the inhibitor from the enzyme can be obtained from the dependence of Vo/Vi on [I] shown in the following equation.

human Factor XIa, sequence (P03951 388-625): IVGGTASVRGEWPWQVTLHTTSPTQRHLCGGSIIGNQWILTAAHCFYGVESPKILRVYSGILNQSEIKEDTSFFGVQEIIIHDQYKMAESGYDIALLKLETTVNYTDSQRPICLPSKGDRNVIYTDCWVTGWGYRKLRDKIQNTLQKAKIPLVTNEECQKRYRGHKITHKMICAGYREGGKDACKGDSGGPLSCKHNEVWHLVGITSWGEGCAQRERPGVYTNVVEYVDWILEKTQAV
human Factor XIa, sequence (P03951 19-387 partner): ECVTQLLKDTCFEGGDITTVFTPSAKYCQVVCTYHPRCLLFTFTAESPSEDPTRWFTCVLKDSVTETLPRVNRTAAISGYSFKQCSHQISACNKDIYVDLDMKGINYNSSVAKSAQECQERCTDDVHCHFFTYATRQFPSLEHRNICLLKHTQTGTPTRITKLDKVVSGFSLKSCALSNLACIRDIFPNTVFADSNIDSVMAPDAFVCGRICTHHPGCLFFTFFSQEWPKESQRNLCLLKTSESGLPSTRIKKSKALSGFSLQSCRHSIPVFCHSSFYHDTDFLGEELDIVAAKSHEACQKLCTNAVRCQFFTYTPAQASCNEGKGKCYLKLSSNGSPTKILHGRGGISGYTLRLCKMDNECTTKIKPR

Compound | Ki [nM]
COC(=O)Nc1ccc(C(=O)N[C@@H](Cc2ccccc2)C(=O)N2CCC[C@@]3(C2)OC(=O)Nc2ccc(C4CC4)c(F)c23)cc1 [Example 17, methyl (4-(((S)-1-((R)-6-cyclopropyl-5-fluoro-2-oxo-1,2-dihydrospiro[benzo[d][1,3]oxazine-4,3′-piperidin]-1′-yl)-1-oxo-3-phenylpropan-2-yl)carbamoyl)phenyl)carbamate] | 37.4
COC(=O)Nc1ccc(C(=O)N[C@@H](Cc2ccccc2)C(=O)N2CCC3(CC(=O)Nc4ccc(Cl)cc43)C2)cc1 (stereo partly drawn) [Example 18, methyl (4-(((2S)-1-(6′-chloro-2′-oxo-2′,3′-dihydro-1′H-spiro[pyrrolidine-3,4′-quinolin]-1-yl)-1-oxo-3-phenylpropan-2-yl)carbamoyl)phenyl)carbamate] | 5000
COC(=O)Nc1ccc(C(=O)N[C@@H](CC2CC2)C(=O)N2CC[C@@]3(C2)OC(=O)Nc2ccc(Cl)cc23)cc1 [Example 21b, methyl (4-(((S)-1-((R)-6-chloro-2-oxo-1,2-dihydrospiro[benzo[d][1,3]oxazine-4,3′-pyrrolidin]-1′-yl)-3-cyclopropyl-1-oxopropan-2-yl)carbamoyl)phenyl)carbamate] | 31.2
COC(=O)Nc1ccc(C(=O)N[C@@H](CC2CCCCC2)C(=O)N2CCC3(C2)OC(=O)Nc2ccc(Cl)cc23)cc1 (stereo partly drawn) [Example 34, methyl (4-(((2S)-1-(6-chloro-2-oxo-1,2-dihydrospiro[benzo[d][1,3]oxazine-4,3′-pyrrolidin]-1′-yl)-3-cyclohexyl-1-oxopropan-2-yl)carbamoyl)phenyl)carbamate] | 90
COC(=O)Nc1ccc(C(=O)N[C@@H](CCC(F)(F)F)C(=O)N2CCC[C@@]3(C2)OC(=O)Nc2ccc(Cl)c(F)c23)cc1 [Example 36, methyl (4-(((S)-1-((R)-6-chloro-5-fluoro-2-oxo-1,2-dihydrospiro[benzo[d][1,3]oxazine-4,3′-piperidin]-1′-yl)-5,5,5-trifluoro-1-oxopentan-2-yl)carbamoyl)phenyl)carbamate] | 84.4
COC(=O)Nc1ccc(C(=O)NC[C@@H](Cc2ccccc2)C(=O)N2CCC3(C2)OC(=O)Nc2ccc(Cl)cc23)cc1 (stereo partly drawn) [Example 41, methyl (4-(((2R)-2-benzyl-3-(6-chloro-2-oxo-1,2-dihydrospiro[benzo[d][1,3]oxazine-4,3′-pyrrolidin]-1′-yl)-3-oxopropyl)carbamoyl)phenyl)carbamate] | > 5000
COC(=O)Nc1ccc(C(=O)NC(CC2CCS(=O)(=O)CC2)C(=O)N2CCC3(C2)OC(=O)Nc2ccc(Cl)cc23)cc1 (stereo not shown) [Example 42, methyl (4-((1-(6-chloro-2-oxo-1,2-dihydrospiro[benzo[d][1,3]oxazine-4,3′-pyrrolidin]-1′-yl)-3-(1,1-dioxidotetrahydro-2H-thiopyran-4-yl)-1-oxopropan-2-yl)carbamoyl)phenyl)carbamate] | 83.6
COC(=O)Nc1ccc(C(=O)N[C@@H](CCS(C)(=O)=O)C(=O)N2CCC[C@@]3(C2)OC(=O)Nc2ccc(Cl)cc23)cc1 [Example 59, methyl (4-(((S)-1-((R)-6-chloro-2-oxo-1,2-dihydrospiro[benzo[d][1,3]oxazine-4,3′-piperidin]-1′-yl)-4-(methylsulfonyl)-1-oxobutan-2-yl)carbamoyl)phenyl)carbamate] | 97.7
COC(=O)Nc1ccc(C(=O)N[C@@H](CC(F)(F)F)C(=O)N2CCC[C@@]3(C2)OC(=O)Nc2ccc(Cl)cc23)cc1 [Example 64, methyl (4-(((S)-1-((R)-6-chloro-2-oxo-1,2-dihydrospiro[benzo[d][1,3]oxazine-4,3′-piperidin]-1′-yl)-4,4,4-trifluoro-1-oxobutan-2-yl)carbamoyl)phenyl)carbamate] | 1930
COC(=O)Nc1ccc(C(=O)N[C@H](C(=O)N2CCC[C@@]3(C2)OC(=O)Nc2ccc(Cl)c(F)c23)C2CC2)cc1 [Example 68, methyl (4-(((S)-2-((R)-6-chloro-5-fluoro-2-oxo-1,2-dihydrospiro[benzo[d][1,3]oxazine-4,3′-piperidin]-1′-yl)-1-cyclopropyl-2-oxoethyl)carbamoyl)phenyl)carbamate] | 56.4

Now from value to compound:

Ki [nM] | Compound
726 | COC(=O)Nc1ccc(C(=O)N[C@@H](CC2CC2)C(=O)N2CC[C@]3(C2)OC(=O)Nc2ccc(Cl)cc23)cc1 [Example 21a, methyl (4-(((S)-1-((S)-6-chloro-2-oxo-1,2-dihydrospiro[benzo[d][1,3]oxazine-4,3′-pyrrolidin]-1′-yl)-3-cyclopropyl-1-oxopropan-2-yl)carbamoyl)phenyl)carbamate]
≥ 5000 | COC(=O)Nc1ccc(C(=O)N[C@@](C)(Cc2ccccc2)C(=O)N2CCC3(C2)OC(=O)Nc2ccc(Cl)cc23)cc1 (stereo partly drawn) [Example 24, methyl (4-(((2S)-1-(6-chloro-2-oxo-1,2-dihydrospiro[benzo[d][1,3]oxazine-4,3′-pyrrolidin]-1′-yl)-2-methyl-1-oxo-3-phenylpropan-2-yl)carbamoyl)phenyl)carbamate]
≥ 5000 | COC(=O)Nc1ccc(C(=O)N[C@@]2(C(=O)N3CCC4(C3)OC(=O)Nc3ccc(Cl)cc34)C[C@@H]2c2ccccc2)cc1 (stereo partly drawn) [Example 25, methyl (4-(((1S,2R)-1-(6-chloro-2-oxo-1,2-dihydrospiro[benzo[d][1,3]oxazine-4,3′-pyrrolidin]-1′-ylcarbonyl)-2-phenylcyclopropyl)carbamoyl)phenyl)carbamate]
≥ 5000 | COC(=O)Nc1ccc(C(=O)N[C@H](C(=O)N2CCC3(C2)OC(=O)Nc2ccc(Cl)cc23)c2ccccc2)cc1 (stereo partly drawn) [Example 29, methyl (4-(((1S)-2-(6-chloro-2-oxo-1,2-dihydrospiro[benzo[d][1,3]oxazine-4,3′-pyrrolidin]-1′-yl)-2-oxo-1-phenylethyl)carbamoyl)phenyl)carbamate]
4310 | COC(=O)Nc1ccc(C(=O)N[C@H](C(=O)N2CCC3(C2)OC(=O)Nc2ccc(Cl)cc23)[C@H](C)c2ccccc2)cc1 (stereo partly drawn) [Example 33, methyl (4-(((2S,3R)-1-(6-chloro-2-oxo-1,2-dihydrospiro[benzo[d][1,3]oxazine-4,3′-pyrrolidin]-1′-yl)-1-oxo-3-phenylbutan-2-yl)carbamoyl)phenyl)carbamate]
0.39 | COC(=O)Nc1ccc(C(=O)N[C@@H](Cc2ccc(NS(C)(=O)=O)cc2)C(=O)N2CCC[C@@]3(C2)OC(=O)Nc2ccc(Cl)cc23)cc1 [Example 46, methyl (4-(((S)-1-((R)-6-chloro-2-oxo-1,2-dihydrospiro[benzo[d][1,3]oxazine-4,3′-piperidin]-1′-yl)-3-(4-(methylsulfonamido)phenyl)-1-oxopropan-2-yl)carbamoyl)phenyl)carbamate]
362 | COC(=O)Nc1ccc(C(=O)N[C@H](CC(=O)N2CCC3(C2)OC(=O)Nc2ccc(Cl)cc23)Cc2ccccc2)cc1 (stereo partly drawn) [Example 49, methyl (4-(((2S)-4-(6-chloro-2-oxo-1,2-dihydrospiro[benzo[d][1,3]oxazine-4,3′-pyrrolidin]-1′-yl)-4-oxo-1-phenylbutan-2-yl)carbamoyl)phenyl)carbamate]
55.7 | COC(=O)Nc1ccc(C(=O)N[C@@H](CCCCO)C(=O)N2CCC3(C2)OC(=O)Nc2ccc(Cl)cc23)cc1 (stereo partly drawn) [Example 51, methyl (4-(((2S)-1-(6-chloro-2-oxo-1,2-dihydrospiro[benzo[d][1,3]oxazine-4,3′-pyrrolidin]-1′-yl)-6-hydroxy-1-oxohexan-2-yl)carbamoyl)phenyl)carbamate]
52 | COC(=O)Nc1ccc(C(=O)N[C@@H](CCCCNC(=O)C(F)(F)F)C(=O)N2CCC[C@@]3(C2)OC(=O)Nc2ccc(Cl)cc23)cc1 [Example 54, methyl (4-(((S)-1-((R)-6-chloro-2-oxo-1,2-dihydrospiro[benzo[d][1,3]oxazine-4,3′-piperidin]-1′-yl)-1-oxo-6-(2,2,2-trifluoroacetamido)hexan-2-yl)carbamoyl)phenyl)carbamate]
93.2 | COC(=O)Nc1ccc(C(=O)N[C@@H](C)C(=O)N2CCC[C@@]3(C2)OC(=O)Nc2ccc(Cl)cc23)cc1 [Example 55, methyl (4-(((S)-1-((R)-6-chloro-2-oxo-1,2-dihydrospiro[benzo[d][1,3]oxazine-4,3′-piperidin]-1′-yl)-1-oxopropan-2-yl)carbamoyl)phenyl)carbamate]
102 | COC(=O)Nc1ccc(C(=O)N[C@@H](CC[S+](C)[O-])C(=O)N2CCC[C@@]3(C2)OC(=O)Nc2ccc(Cl)cc23)cc1 (stereo partly drawn) [Example 56, methyl (4-(((2S)-1-((R)-6-chloro-2-oxo-1,2-dihydrospiro[benzo[d][1,3]oxazine-4,3′-piperidin]-1′-yl)-4-(methylsulfinyl)-1-oxobutan-2-yl)carbamoyl)phenyl)carbamate]
36.2 | COC(=O)Nc1ccc(C(=O)N[C@@H](Cc2cnc3ccccc3n2)C(=O)N2CCC[C@@]3(C2)OC(=O)Nc2ccc(Cl)c(F)c23)cc1 [Example 69, methyl (4-(((S)-1-((R)-6-chloro-5-fluoro-2-oxo-1,2-dihydrospiro[benzo[d][1,3]oxazine-4,3′-piperidin]-1′-yl)-1-oxo-3-(quinoxalin-2-yl)propan-2-yl)carbamoyl)phenyl)carbamate]
